Assay: logP determination by HPLC on a reversed-phase column (C 18), EEC Directive 79/831 Annex V.A8
Type: physicochemical
Conditions: value marked [a]
Experimental: The stated logP values were determined in accordance with EEC Directive 79/831 Annex V.A8 by HPLC (high performance liquid chromatography) on a reversed-phase column (C 18). Temperature: 43° C.

| logP | Compound |
| --- | --- |
| 5.72^[a] | CC(=NOCCCCON=C(C)c1cccc(C)n1)c1ccc2ccccc2c1 [compound 445] |
| 5.27^[a] | CC(=NOCC(C)CON=C(C)c1cccc(C)n1)c1ccc2c(c1)CC(C)O2 (stereo not drawn) [compound 494] |
| 3.52^[a] | CC(=NOCC(C)CON=C(C)c1csc(C)n1)c1csc(C)n1 (stereo not drawn) [compound 517] |
| 3.99^[a] | CC(=NOCC(C)(C)CON=C(C)c1csc(C)n1)c1csc(C)n1 [compound 518] |

Same assay, conditions: value marked [b]

| logP | Compound |
| --- | --- |
| 4.91^[b] | CC(=NOCCCCON=C(C)c1cccc(C)n1)c1ccc2c(c1)CC(C)O2 (stereo not drawn) [compound 441] |
| 5.54^[b] | CC(=NOCCCCON=C(C)c1cccc(C)n1)c1cccc(Cl)c1 [compound 442] |
| 4.57^[b] | COc1cccc(C(C)=NOCCCCON=C(C)c2cccc(C)n2)c1 [compound 443] |
| 5.54^[b] | CC(=NOCCCCON=C(C)c1cccc(C)n1)c1ccc(Cl)cc1 [compound 444] |
| 4.97^[b] | CC(=NOCCCCON=C(C)c1ccc(Cl)s1)c1cccc(C)n1 [compound 446] |
| 2.41^[b] | CC(=NOCCCCON=C(C)c1cc(C)cc(C)n1)c1cccc(C)n1 [compound 447] |
| 1.69^[b] | CC(=NOCCCCON=C(C)c1cccnc1C)c1cccc(C)n1 [compound 448] |
| 3.11^[b] | COc1cc(C)nc(C(C)=NOCCCCON=C(C)c2cccc(C)n2)c1 [compound 449] |
| 5.48^[b] | CCCc1cccc(C(C)=NOCCCCON=C(C)c2cccc(C)n2)n1 [compound 450] |
| 3.02^[b] | CC(=NOCCCCON=C(C)c1ncccc1C)c1cccc(C)n1 [compound 451] |
| 5.97^[b] | CC(=NOCCCCON=C(C)c1cccc(C(C)C)n1)c1cccc(C)n1 [compound 452] |
| 1.88^[b] | CC(=NOCCCCON=C(C)c1cncc(C)n1)c1cccc(C)n1 [compound 453] |
| 2.62^[b] | CC(=NOCCCCCCON=C(C)c1cccc(C)n1)c1ccncc1 [compound 454] |
| 5.97^[b] | CC(=NOCCCCCCON=C(C)c1cccc(C)n1)c1ccc2c(c1)CC(C)O2 (stereo not drawn) [compound 455] |
| 6.58^[b] | CC(=NOCCCCCCON=C(C)c1cccc(C)n1)c1cccc(Cl)c1 [compound 456] |
| 5.59^[b] | COc1cccc(C(C)=NOCCCCCCON=C(C)c2cccc(C)n2)c1 [compound 457] |
| 6.58^[b] | CC(=NOCCCCCCON=C(C)c1cccc(C)n1)c1ccc(Cl)cc1 [compound 458] |
| 6.16^[b] | CC(=NOCCCCCCON=C(C)c1ccc(Cl)s1)c1cccc(C)n1 [compound 459] |
| 2.27^[b] | CC(=NOCCCCCCON=C(C)c1cccnc1C)c1cccc(C)n1 [compound 461] |
| 4.15^[b] | COc1cc(C)nc(C(C)=NOCCCCCCON=C(C)c2cccc(C)n2)c1 [compound 462] |

| logP | Compound |
| --- | --- |
| 6.79^[b] | CCCc1cccc(C(C)=NOCCCCCCON=C(C)c2cccc(C)n2)n1 [compound 463] |
| 4.25^[b] | CC(=NOCCCCCCON=C(C)c1ncccc1C)c1cccc(C)n1 [compound 464] |
| 7.12^[b] | CC(=NOCCCCCCON=C(C)c1cccc(C(C)C)n1)c1cccc(C)n1 [compound 465] |
| 4.8^[b] | CC(=NOCCCCCCON=C(C)c1cncc(C)n1)c1cccc(C)n1 [compound 466] |
| 1.88^[b] | C=C(CON=C(C)c1ccncc1)CON=C(C)c1cccc(C)n1 [compound 467] |
| 4.85^[b] | C=C(CON=C(C)c1ccc2c(c1)CC(C)O2)CON=C(C)c1cccc(C)n1 (stereo not drawn) [compound 468] |
| 5.31^[b] | C=C(CON=C(C)c1cccc(Cl)c1)CON=C(C)c1cccc(C)n1 [compound 469] |
| 4.46^[b] | C=C(CON=C(C)c1cccc(OC)c1)CON=C(C)c1cccc(C)n1 [compound 470] |
| 5.48^[b] | C=C(CON=C(C)c1ccc(Cl)cc1)CON=C(C)c1cccc(C)n1 [compound 471] |
| 5.48^[b] | C=C(CON=C(C)c1ccc2ccccc2c1)CON=C(C)c1cccc(C)n1 [compound 472] |
| 5.78^[b] | C=C(CON=C(C)c1cccc(C)n1)CON=C(C)c1cccc(C(C)C)n1 [compound 479] |
| 3.46^[b] | C=C(CON=C(C)c1cccc(C)n1)CON=C(C)c1cncc(C)n1 [compound 480] |
| 2.41^[b] | CC(=NOCC(C)(C)CON=C(C)c1cccc(C)n1)c1ccncc1 [compound 481] |
| 5.65^[b] | CC(=NOCC(C)(C)CON=C(C)c1cccc(C)n1)c1ccc2c(c1)CC(C)O2 (stereo not drawn) [compound 482] |
| 5.31^[b] | COc1cccc(C(C)=NOCC(C)(C)CON=C(C)c2cccc(C)n2)c1 [compound 484] |
| 6.22^[b] | CC(=NOCC(C)(C)CON=C(C)c1cccc(C)n1)c1ccc(Cl)cc1 [compound 485] |
| 2.20^[b] | CC(=NOCC(C)(C)CON=C(C)c1cccnc1C)c1cccc(C)n1 [compound 488] |
| 6.36^[b] | CCCc1cccc(C(C)=NOCC(C)(C)CON=C(C)c2cccc(C)n2)n1 [compound 489] |
| 3.89^[b] | CC(=NOCC(C)(C)CON=C(C)c1ncccc1C)c1cccc(C)n1 [compound 490] |
| 4.41^[b] | C/C(=N\OCC(C)(C)CO/N=C(\C)c1cncc(C)n1)c1cccc(C)n1 [compound 492] |

| logP | Compound |
| --- | --- |
| 2.04^[b] | CC(=NOCC(C)CON=C(C)c1cccc(C)n1)c1ccncc1 (stereo not drawn) [compound 493] |
| 5.78^[b] | CC(=NOCC(C)CON=C(C)c1cccc(C)n1)c1ccc(Cl)cc1 (stereo not drawn) [compound 496] |
| 5.84^[b] | CC(=NOCC(C)CON=C(C)c1cccc(C)n1)c1ccc2ccccc2c1 (stereo not drawn) [compound 497] |
| 5.36^[b] | CC(=NOCC(C)CON=C(C)c1ccc(Cl)s1)c1cccc(C)n1 (stereo not drawn) [compound 498] |
| 1.85^[b] | CC(=NOCC(C)CON=C(C)c1cccnc1C)c1cccc(C)n1 (stereo not drawn) [compound 500] |
| 3.37^[b] | CC(=NOCC(C)CON=C(C)c1ncccc1C)c1cccc(C)n1 (stereo not drawn) [compound 503] |
| 3.85^[b] | C/C(=N\OCC(C)CO/N=C(\C)c1cncc(C)n1)c1cccc(C)n1 (stereo not drawn) [compound 505] |
| 2.59^[b] | CC(=NOCC(C)CON=C(C)c1nccc(C)n1)c1cccc(C)n1 (stereo not drawn) [compound 506] |
| 3.28^[b] | CC(=NOCC(C)CON=C(C)c1cccc(C)n1)c1cnccn1 (stereo not drawn) [compound 507] |
| 2.37^[b] | CC(=NOCCCCON=C(C)c1nccc(C)n1)c1cccc(C)n1 [compound 508] |
| 2.37^[b] | C=C(CON=C(C)c1cccc(C)n1)CON=C(C)c1nccc(C)n1 [compound 510] |
| 3.02^[b] | CC(=NOCC(C)(C)CON=C(C)c1nccc(C)n1)c1cccc(C)n1 [compound 511] |
| 3.02^[b] | CC(=NOCCCCON=C(C)c1cccc(C)n1)c1cnccn1 [compound 512] |
| 4.25^[b] | CC(=NOCCCCCCON=C(C)c1cccc(C)n1)c1cnccn1 [compound 513] |
| 2.98^[b] | C=C(CON=C(C)c1cnccn1)CON=C(C)c1cccc(C)n1 [compound 514] |
| 3.70^[b] | CC(=NOCC(C)(C)CON=C(C)c1cccc(C)n1)c1cnccn1 [compound 515] |
| 4.07^[b] | C=C(CON=C(CC)c1nc(C)c(C)c(C)n1)CON=C(CC)c1nc(C)c(C)c(C)n1 [compound 516] |
| 3.52^[b] | CC(=NOCC(C)CON=C(C)c1csc(C)n1)c1csc(C)n1 (stereo not drawn) [compound 517] |
| 3.99^[b] | CC(=NOCC(C)(C)CON=C(C)c1csc(C)n1)c1csc(C)n1 [compound 518] |

Source: US20100022559A1, “BISOXIMES AS FUNGICIDES” (BAYER CROPSCIENCE AG, priority 2006, published 2010)
